From patent US20110044913A1, “8-HYDROXY-5-[(1R)-1-HYDROXY-2-[[(1R)-2-(4-METHOXYPHENYL)-1-METHYLETHYL]AMINO]ETHYL]-2(1H)-QUINOLINONE HEMI-FUMARATE” (Chiesi Farmaceutici S.p.A., priority 2009, published 2011)
Where a name gives a salt, the structure may show the parent alone.

Experiments:
Format in all cases: physicochemical
[1] = Solubility of the salt in different solvents
[2] = Hygroscopicity of the salt
[3] = Chemical and physical stability of the salt; conditions: different conditions of humidity and temperature
[4] = Particle size distribution after jet milling (micronization); conditions: micronized batch
Excerpt: A batch of formoterol fumarate dihydrate is milled in a nitrogen fluid jet mill apparatus MC 50 (JET Pharma S.A).

[5] = Dispersion of the micronized salt in the carrier by Near Infrared microscopy imaging (Near Imaging); conditions: micronized form, after 180 minute of mixing
Method: As it can be appreciated from Table 6, upon milling, the salt of the present invention remains crystalline and its chemical purity is not altered. The batch is then added to a carrier made of coarser particles.
The homogeneous dispersion of the active ingredient in the powder, and the absence of aggregates of active particles is established using a Near Infrared spectrophotometer equipped with a microscopy imaging system (Near Imaging).

## COc1ccc(CC(C)NCC(O)c2ccc(O)c3[nH]c(=O)ccc23)cc1 [Carmoterol hemi-fumarate, 8-hydroxy-5-[(1R)-1-hydroxy-2-[[(1R)-2-(4-methoxyphenyl)-1-methylethyl]amino]ethyl]-2(1H)-quinolinone (carmoterol) hemi-fumarate salt]
[1]; HFA propellants
  Solubility in HFA propellants: practically insoluble
[1]; solvent: Vertrel XF (2,3-dihydodecafluoropentane, simulates HFA propellants), l.o.d. = limit of detection
  Solubility in Vertrel XF: <l.o.d.^(2)
[1]; solvent: acetone
  Solubility in Acetone: 0.008 %, w/v
[1]; solvent: ethanol
  Solubility in Ethanol: 0.27 %, w/v
[1]; solvent: water
  solubility: 13.6 mg/mL
[2]
  Hygroscopicity: non-hygroscopic
[3]
  Chemical and physical stability: chemically and physically stable
[4]
  Particle size d (v, 0.1): 0.79 μm
  Particle size d (v, 0.5): 3.73 μm
  Particle size d (v, 0.9): 7.58 μm
[5]
  Agglomerates after mixing with carrier: no agglomerates are observed
